From US20180256673A1, “METHODS FOR TREATING FUNGAL INFECTIONS” (priority 2015, published 2018)
pIC50: −log10 of the molar value. Converted amounts (≈) assume the structure as drawn. Read-outs that look alike come from different tables or passages of the source. Starred links: 1 amine or outer side, 2 acyl side, 3 side chain; linkers in the order of their positions; H or OH if unused. Positions of bridges follow the written chain, without caps; N, C: chain ends. Non-standard residues stand in square brackets, D forms with d. Residues, ends and D or L forms follow the SMILES beside them. *: point of attachment. hTyr(3S-OH,4S-OH,3'-OSO3H) = N[C@H](C(=O)O)[C@H](O)[C@@H](O)c1ccc(O)c(OS(=O)(=O)O)c1; Orn(4R-OH,5R-OH) = O=C([C@H](C[C@@H](O)[C@@H](O)N[*:3])N[*:1])[*:2]; Pro(3S-OH,4S-Me) = C[C@H]1CN[C@H](C(=O)O)[C@H]1O; X1 = CCCCCOc1ccc(-c2cc(-c3ccc(C(=O)*)cc3)no2)cc1; Gln(3R-OH) = NC(=O)C[C@@H](O)[C@H](N)C(=O)O; Hyp = O=C(O)[C@@H]1C[C@@H](O)CN1

How the values were obtained:
C. krusei = assay: Antifungal susceptibility testing (CLSI M27-S4), WT and echinocandin-resistant isolates; settings: 24 hr
Experimental: (§1) Antifungal susceptibility testing. Antifungal susceptibility testing was performed in triplicate for a collection of 95 Candida strains (20 C. albicans, 20 C. glabrata, 2 C. dubliniensis, 15 C. krusei, 19 C. parapsilosis, and 19 C. tropicalis) that included 30 isolates showing an echinocandin resistance (ER) phenotype (caspofungin-resistant) in accordance with the guidelines described in the Clinical and Laboratory Standards Institute (CLSI) document M27-S4. […] Stock solutions of the drugs were kept at −86° C.

C. parapsilosis = assay: Antifungal susceptibility testing (CLSI M27-S4); settings: WT (19 isolates); 24 hr
Experimental: as §1

C. glabrata = assay: Antifungal susceptibility testing (CLSI M27-S4), WT and echinocandin-resistant isolates; settings: for MIC median (range): 24 hr
Experimental: as §1

C. dubliniensis = assay: as above; settings: 24 hr
Experimental: as §1

Candida parapsilosis = assay: Broth microdilution of invasive fungal isolates (CLSI M27-A3/M38-A2); type: cell-based
[1] = test system: C. glabrata vaginal isolates; assay: Susceptibility testing of VVC clinical isolates at pH 7 and 4 (CLSI M27-A3); type: cell-based, Candida glabrata; settings: Nakaseomyces glabratus
[2] = molecular target: 1,3-β-D-glucan synthase from C. albicans (Candida albicans, UniProt O13428, S645P); assay: Glucan synthase (GS) inhibition assay; settings: IC50, DPL20; Fks1 S645P
Chain of 1,3-β-D-glucan synthase from C. albicans (Candida albicans, UniProt O13428, S645P) (O13428 entry or part of it S645P): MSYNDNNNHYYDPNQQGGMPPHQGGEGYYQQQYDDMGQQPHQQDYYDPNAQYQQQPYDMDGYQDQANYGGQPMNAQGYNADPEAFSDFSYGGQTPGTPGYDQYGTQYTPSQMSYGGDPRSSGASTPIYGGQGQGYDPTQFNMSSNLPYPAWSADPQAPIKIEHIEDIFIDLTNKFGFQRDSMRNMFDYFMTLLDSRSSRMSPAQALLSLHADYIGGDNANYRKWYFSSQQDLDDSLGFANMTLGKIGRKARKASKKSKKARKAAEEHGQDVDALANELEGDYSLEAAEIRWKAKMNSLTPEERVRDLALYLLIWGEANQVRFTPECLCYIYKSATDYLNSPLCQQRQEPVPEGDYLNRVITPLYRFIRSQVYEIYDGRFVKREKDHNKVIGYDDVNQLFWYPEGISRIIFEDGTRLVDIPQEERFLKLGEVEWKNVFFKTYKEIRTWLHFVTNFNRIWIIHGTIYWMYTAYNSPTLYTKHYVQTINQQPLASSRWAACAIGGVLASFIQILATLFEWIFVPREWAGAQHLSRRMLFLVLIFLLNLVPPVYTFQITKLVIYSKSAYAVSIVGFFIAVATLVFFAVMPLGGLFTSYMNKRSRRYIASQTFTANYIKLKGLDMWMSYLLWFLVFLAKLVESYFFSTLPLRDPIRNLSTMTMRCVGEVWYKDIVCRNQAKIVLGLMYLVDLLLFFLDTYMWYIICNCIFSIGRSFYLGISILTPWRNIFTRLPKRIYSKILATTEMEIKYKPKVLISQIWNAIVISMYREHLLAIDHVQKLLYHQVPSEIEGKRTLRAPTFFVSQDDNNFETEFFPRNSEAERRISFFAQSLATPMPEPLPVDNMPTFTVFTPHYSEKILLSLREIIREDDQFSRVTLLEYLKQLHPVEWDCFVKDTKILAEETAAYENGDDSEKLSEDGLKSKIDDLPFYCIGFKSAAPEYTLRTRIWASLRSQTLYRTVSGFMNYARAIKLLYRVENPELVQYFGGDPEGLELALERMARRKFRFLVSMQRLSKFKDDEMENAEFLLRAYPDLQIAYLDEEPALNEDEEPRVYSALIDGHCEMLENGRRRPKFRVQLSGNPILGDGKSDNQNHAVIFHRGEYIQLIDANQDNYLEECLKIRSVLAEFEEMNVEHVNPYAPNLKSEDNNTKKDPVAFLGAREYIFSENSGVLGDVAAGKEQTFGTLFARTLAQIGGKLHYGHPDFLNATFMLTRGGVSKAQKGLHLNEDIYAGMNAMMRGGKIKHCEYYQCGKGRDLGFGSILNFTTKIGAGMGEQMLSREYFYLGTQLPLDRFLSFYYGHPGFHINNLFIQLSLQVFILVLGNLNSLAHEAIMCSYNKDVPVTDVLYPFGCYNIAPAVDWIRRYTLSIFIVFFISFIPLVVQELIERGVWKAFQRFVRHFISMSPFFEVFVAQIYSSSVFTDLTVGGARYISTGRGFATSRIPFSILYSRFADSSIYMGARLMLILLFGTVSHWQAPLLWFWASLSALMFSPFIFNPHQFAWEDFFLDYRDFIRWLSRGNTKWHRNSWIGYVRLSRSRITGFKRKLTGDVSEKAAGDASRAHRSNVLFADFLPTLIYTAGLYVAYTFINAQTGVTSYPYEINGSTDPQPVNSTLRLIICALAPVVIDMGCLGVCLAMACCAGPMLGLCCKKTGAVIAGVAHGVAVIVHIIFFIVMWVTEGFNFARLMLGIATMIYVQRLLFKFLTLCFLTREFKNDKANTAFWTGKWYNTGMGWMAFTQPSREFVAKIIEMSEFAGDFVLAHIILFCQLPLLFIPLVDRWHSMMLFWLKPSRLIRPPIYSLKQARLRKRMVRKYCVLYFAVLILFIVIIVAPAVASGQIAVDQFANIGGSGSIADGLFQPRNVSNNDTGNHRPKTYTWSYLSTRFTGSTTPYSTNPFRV

[3] = molecular target: 1,3-β-D-glucan synthase from C. albicans (Candida albicans, UniProt O13428, F641S); assay: Glucan synthase (GS) inhibition assay; settings: IC50, DPL18; Fks1 F641S
Chain of 1,3-β-D-glucan synthase from C. albicans (Candida albicans, UniProt O13428, F641S) (O13428 entry or part of it F641S): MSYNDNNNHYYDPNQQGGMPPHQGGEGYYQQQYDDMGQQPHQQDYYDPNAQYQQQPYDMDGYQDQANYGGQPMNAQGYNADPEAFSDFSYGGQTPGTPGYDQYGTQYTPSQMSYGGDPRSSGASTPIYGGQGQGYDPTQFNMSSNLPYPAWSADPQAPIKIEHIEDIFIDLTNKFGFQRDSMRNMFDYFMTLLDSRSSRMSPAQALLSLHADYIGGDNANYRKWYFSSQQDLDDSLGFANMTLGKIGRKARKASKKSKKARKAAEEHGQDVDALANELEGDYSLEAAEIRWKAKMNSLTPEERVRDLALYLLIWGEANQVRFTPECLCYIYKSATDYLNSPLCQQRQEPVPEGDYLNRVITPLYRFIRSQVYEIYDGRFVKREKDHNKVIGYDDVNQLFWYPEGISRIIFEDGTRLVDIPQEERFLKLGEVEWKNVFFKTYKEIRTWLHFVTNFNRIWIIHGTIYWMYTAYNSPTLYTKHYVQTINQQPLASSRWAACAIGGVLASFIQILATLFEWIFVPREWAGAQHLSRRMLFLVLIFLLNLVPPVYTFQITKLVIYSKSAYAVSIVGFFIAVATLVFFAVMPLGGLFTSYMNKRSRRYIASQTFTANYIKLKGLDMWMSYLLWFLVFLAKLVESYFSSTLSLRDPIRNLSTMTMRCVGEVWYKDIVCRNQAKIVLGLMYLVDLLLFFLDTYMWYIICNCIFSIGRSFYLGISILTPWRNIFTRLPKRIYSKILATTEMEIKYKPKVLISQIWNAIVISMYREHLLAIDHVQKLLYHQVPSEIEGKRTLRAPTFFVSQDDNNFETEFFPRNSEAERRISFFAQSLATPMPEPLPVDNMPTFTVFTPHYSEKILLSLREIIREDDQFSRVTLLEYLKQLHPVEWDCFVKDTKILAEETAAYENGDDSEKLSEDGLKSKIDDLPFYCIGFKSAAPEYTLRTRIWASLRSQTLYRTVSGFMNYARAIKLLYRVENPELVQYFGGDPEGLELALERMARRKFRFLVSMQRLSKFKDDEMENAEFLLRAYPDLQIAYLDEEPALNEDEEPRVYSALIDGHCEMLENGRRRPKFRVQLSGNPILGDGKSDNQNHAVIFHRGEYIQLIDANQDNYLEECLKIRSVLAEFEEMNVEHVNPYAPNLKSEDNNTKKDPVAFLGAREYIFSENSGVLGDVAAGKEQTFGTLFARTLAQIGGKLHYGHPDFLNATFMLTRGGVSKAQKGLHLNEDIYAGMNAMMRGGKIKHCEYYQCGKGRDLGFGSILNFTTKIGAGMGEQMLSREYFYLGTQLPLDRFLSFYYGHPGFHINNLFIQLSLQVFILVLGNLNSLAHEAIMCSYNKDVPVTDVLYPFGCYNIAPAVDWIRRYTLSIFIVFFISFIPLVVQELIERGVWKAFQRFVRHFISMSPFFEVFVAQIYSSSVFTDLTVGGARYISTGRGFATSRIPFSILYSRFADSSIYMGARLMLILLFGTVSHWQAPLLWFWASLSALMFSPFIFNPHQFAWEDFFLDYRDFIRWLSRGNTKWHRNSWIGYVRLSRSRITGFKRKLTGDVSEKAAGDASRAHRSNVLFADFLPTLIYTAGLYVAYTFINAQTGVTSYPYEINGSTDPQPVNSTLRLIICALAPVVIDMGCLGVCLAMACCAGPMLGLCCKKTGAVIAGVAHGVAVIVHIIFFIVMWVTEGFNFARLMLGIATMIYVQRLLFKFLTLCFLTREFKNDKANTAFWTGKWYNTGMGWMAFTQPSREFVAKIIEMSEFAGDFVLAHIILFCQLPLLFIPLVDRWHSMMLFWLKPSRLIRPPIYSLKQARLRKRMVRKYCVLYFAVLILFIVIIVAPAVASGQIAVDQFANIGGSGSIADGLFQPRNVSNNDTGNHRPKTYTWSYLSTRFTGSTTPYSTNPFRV

[4] = molecular target: 1,3-β-D-glucan synthase from C. albicans (Candida albicans, UniProt O13428); assay: Glucan synthase (GS) inhibition assay
Candida glabrata = assay: microbe, parasite or virus in culture; type: cell-based

Question: Which results are given for `CCCCCOc1ccc(-c2cc(-c3ccc(C(=O)N[C@H]4C[C@@H](O)[C@@H](O)NC(=O)[C@@H]5[C@@H](O)[C@@H](C)CN5C(=O)[C@H]([C@H](O)CC(N)=O)NC(=O)[C@H]([C@H](O)[C@@H](O)c5ccc(O)c(OS(=O)(=O)O)c5)NC(=O)[C@@H]5C[C@@H](O)CN5C(=O)[C@H]([C@@H](C)O)NC4=O)cc3)no2)cc1` [MCF, micafungin] (X1-[Orn(4R-OH,5R-OH)]T[Hyp][hTyr(3S-OH,4S-OH,3'-OSO3H)][Gln(3R-OH)][Pro(3S-OH,4S-Me)]; lactam 1-C)?
Answer: MIC median (range) (C. krusei; ER (4 isolates)): 1.00 (0.03-8) mg/L; MIC median (range) (C. krusei; WT (11 isolates)): 0.12 (0.03-0.25) mg/L; MIC median (range) (C. parapsilosis): 4 (1-4) mg/L; % of ER isolates with an MIC (C. glabrata; C. glabrata ER isolates (n=11)): 63%; MIC median (range) (C. glabrata; ER (11 isolates)): 0.50 (0.06-4) mg/L; MIC median (range) (C. glabrata; WT (9 isolates)): <0.03 (<0.03)^ mg/L; MIC median (range) (C. dubliniensis; ER (1 isolate)): 0.03 µg/mL (≈ 0.0236 µM); MIC median (range) (C. dubliniensis; WT (1 isolate)): 0.03 µg/mL (≈ 0.0236 µM); Cumulative % of isolates inhibited at MIC 0.5 μg/mL (Candida parapsilosis; 92 isolates): (10.9) %; Cumulative % of isolates inhibited at MIC 1 μg/mL (Candida parapsilosis; 92 isolates): (72.8) %; Cumulative % of isolates inhibited at MIC 2 μg/mL (Candida parapsilosis; 92 isolates): (100.0) %; Number of isolates inhibited at MIC 0.5 μg/mL (Candida parapsilosis; 92 isolates): 10; Number of isolates inhibited at MIC 1 μg/mL (Candida parapsilosis; 92 isolates): 57; Number of isolates inhibited at MIC 2 μg/mL (Candida parapsilosis; 92 isolates): 25; MIC50 (Candida parapsilosis; Lodderomyces parapsilosis): 1 µg/mL (≈ 0.787 µM); MIC90 (Candida parapsilosis; Lodderomyces parapsilosis): 2 µg/mL (≈ 1.57 µM); MIC90 ([1]; 24 h, pH 4): 0.016 µg/mL (≈ 0.0126 µM); MIC90 ([1]; 24 h, pH 7): 0.008 µg/mL (≈ 0.0063 µM); MIC90 ([1]; 48 h, pH 4): 0.03 µg/mL (≈ 0.0236 µM); MIC90 ([1]; 48 h, pH 7): 0.016 µg/mL (≈ 0.0126 µM); pIC50 [2]: 5.70; pIC50 [3]: 5.85; pIC50 ([4]; IC50, DPL1002, WT): 7.86; pIC50 ([4]; IC50, glucan synthase, ATCC 90028, WT): 7.85; pIC50 ([4]; glucan synthase, DPL22, Fks1p S645P/S): 6.71; Cumulative % of isolates inhibited at MIC 0.015 μg/mL (Candida glabrata): (74.0) %; Cumulative % of isolates inhibited at MIC 0.03 μg/mL (Candida glabrata): (95.0) %; Cumulative % of isolates inhibited at MIC 0.06 μg/mL (Candida glabrata): (95.0) %; Cumulative % of isolates inhibited at MIC 0.12 μg/mL (Candida glabrata): (95.0) %; Cumulative % of isolates inhibited at MIC 0.25 μg/mL (Candida glabrata): (95.0) %; Cumulative % of isolates inhibited at MIC 0.5 μg/mL (Candida glabrata): (95.0) %; Cumulative % of isolates inhibited at MIC 1 μg/mL (Candida glabrata): (95.0) %; Cumulative % of isolates inhibited at MIC 2 μg/mL (Candida glabrata): (98.0) %; Cumulative % of isolates inhibited at MIC 4 μg/mL (Candida glabrata): (100.0) %; Cumulative % of isolates inhibited at MIC ≤0.008 μg/mL (Candida glabrata): (1.0) %; MIC according to CLSI method (Candida glabrata): 4 µg/mL (≈ 3.15 µM); Number of isolates inhibited at MIC 0.015 μg/mL (Candida glabrata): 73; Number of isolates inhibited at MIC 0.03 μg/mL (Candida glabrata): 21; Number of isolates inhibited at MIC 0.06 μg/mL (Candida glabrata): 0; Number of isolates inhibited at MIC 0.12 μg/mL (Candida glabrata): 0; Number of isolates inhibited at MIC 0.25 μg/mL (Candida glabrata): 0; Number of isolates inhibited at MIC 0.5 μg/mL (Candida glabrata): 0; Number of isolates inhibited at MIC 1 μg/mL (Candida glabrata): 0; Number of isolates inhibited at MIC 2 μg/mL (Candida glabrata): 3; Number of isolates inhibited at MIC 4 μg/mL (Candida glabrata): 2; Number of isolates inhibited at MIC ≤0.008 μg/mL (Candida glabrata): 1; MIC50 (Candida glabrata; Nakaseomyces glabratus, read-out: MIC50): 0.015 µg/mL (≈ 0.0118 µM); MIC90 (Candida glabrata; Nakaseomyces glabratus, read-out: MIC90): 0.03 µg/mL (≈ 0.0236 µM); MIC (Candida glabrata; Nakaseomyces glabratus, read-out: MIC according to CLSI method): 2 µg/mL (≈ 1.57 µM); MIC (Candida glabrata; Nakaseomyces glabratus, read-out: MIC results): 2 to 4 µg/mL (≈ 1.57 to 3.15 µM)
